The text below walks through data of patent US7235649B2, “Isolated GRP94 ligand binding domain polypeptide and nucleic acid encoding same, and screening methods employing same” (Duke University, priority 2000, dated 2007).

One may read the Kd as a measure of binding affinity in units of concentration.

Test [1] addresses T1, GRP94 (Sus scrofa, UniProt Q29092). The experiment in a line: Isothermal titration calorimetry. The test is classed as binding, porcine. Further details: GRP94 was purified from porcine pancreas rough microsomes; from tissue; host or cells: porcine pancreas rough microsomes. As to conditions: 5 μM GRP94, 152 μM NECA stock, 25° C. For orientation: In ITC the heat of successive injections is recorded.
Protocol: Isothermal calorimetry experiments were performed at 25° C. using a MSC calorimeter (MicroCal Inc. of Northampton, Mass.). […] Necessary corrections were made by subtracting the heats of dilution resulting from buffer addition to protein solution and ligand solution into buffer.

Test [2] addresses T1, GRP94. The experiment in a line: [3H]-NECA competitive displacement assay. It counts as binding, porcine. Further details: GRP94 was purified from porcine pancreas rough microsomes; from tissue; host or cells: porcine pancreas rough microsomes. The settings on record: for effect of excess Mg2+ on binding to GRP94: 10 mM Mg(OAc)2 vs nominal endogenous magnesium.
Test [3] addresses T1, GRP94. The experiment in a line: GRP94 autophosphorylation assay. It counts as biochemical, porcine. Further details: GRP94 was purified from porcine pancreas rough microsomes; from tissue; host or cells: porcine pancreas rough microsomes. The settings on record: 180 μM NECA or 180 μM radicicol in 3.6% DMSO, 5 μg/ml heparin, 5 mM GTP; 1 hour 37° C. Here is the method:
(§1) Phosphorylation Assays. […] For the casein kinase assay, 1 unit of casein kinase 11 was incubated as described above, with the addition of 4 μM casein. […] The 25 μl reaction mixtures were incubated at 37° C. for 1 hour and quenched by addition of 10% trichloroacetic acid. Samples were analyzed by 10% SDS-PAGE gels and the phosphorylated species were quantitated using a Fuji MACBAS1000™ phosphorimaging system (Fuji Medical Systems of Stamford, Conn.).

The test system of test [4] is BiP. The experiment in a line: [3H]-NECA binding assay (vacuum filtration). Further details: species or system porcine. The settings on record: 20 nM [3H]-NECA, 60 min on ice. Here is the method: (§2) BiP was purified by the following procedure. A lumenal protein fraction obtained from porcine pancreas rough microsomes was cycled overnight through a 1 ml ADP-agarose and a 1 ml ATP-agarose (Sigma Chemical Co. of St. Louis, Mo.) column coupled in series. […] The BiP containing fractions were identified by SDS-PAGE, and dialyzed against 2×4 L of buffer A (110 mM KOAc, 20 mM NaCl, 25 mM K-Hepes, pH 7.2, 2 mM Mg(OAc)2 0.1 mM CaCl2). The protein sample was then applied to a SUPERDEX® 26/60 column (Amersham Pharmacia Biotech of Piscataway, N.J.) equilibrated in buffer A, and the BiP containing fractions, again identified by SDS-PAGE, were pooled and concentrated by centrifugal ultrafiltration (CENTRICON-30®; Amicon of Beverly, Mass.).
[^3H]-NECA Binding Assay.
In similar experiments, [^3H]-NECA binding to Hsp90 was evaluated in the presence of molybdate and NP-40, which are known to stabilize the Hsp90 conformation associated with ATP binding, as described by Sullivan et al. (1997).

For test [5], the target named is T1, GRP94. In words: [3H]-NECA binding assay (vacuum filtration). Further details: GRP94 was purified from porcine pancreas rough microsomes; from tissue; host or cells: porcine pancreas rough microsomes; species or system porcine.
The next test addresses casein kinase II (Homo sapiens, UniProt P68400). In words: Casein kinase II assay with casein. The test is classed as biochemical. As to conditions: 180 μM NECA or 180 μM radicicol in 3.6% DMSO, 5 μg/ml heparin, 5 mM GTP; 4 μM casein. Here is the method:
as §1

Test [6] deals with T1, GRP94. The experiment in a line: Tryptophan fluorescence (ligand-induced conformational change). As to conditions: 50 μM NECA, 50 μM geldanamycin, 2.5 mM ATP or 2.5 mM ADP, 1 hour at 37° C.
Protocol: Tryptophan Fluorescence. Tryptophan fluorescence measurements were conducted in a FLUOROMAX™ spectrofluorometer (Spex Industries, Inc. of Edison, N.J.) with the slit widths set to 1 nm for both excitation and emission. […] All spectra were corrected by subtraction of buffer or buffer plus ligand samples. […] Samples were then cooled to room temperature, transferred to a quartz cuvette, and the spectra collected.
For test [7], the system named is BiP. The experiment in a line: [32P]ATP binding assay (nitrocellulose filtration). Further details: species or system porcine. As to conditions: 50 μM [32P]ATP, 1 hour on ice. Here is the method: as §2
(§3) ATP Binding Assay. Six μg of GRP94, BiP, and Hsp90 was incubated with 50 μM yZ[^32P] ATP (1000 μCi/μmol) (Amersham Pharmacia Biotech of Piscataway, N.J.) in buffer B on ice for 1 hour. Nitrocellulose filters (BA85) (Schleicher & Schuell of Keene, N.H.) were individually wet in buffer B before use, and bound versus free [^32P]-ATP was separated by vacuum filtration. Filters were washed with 3×2 mL of ice cold buffer B, placed in 5 mL of scintillation fluid, vortexed, and counted.

The target of test [8] is N-terminal nucleotide binding pocket of Hsp90 (Saccharomyces cerevisiae, UniProt P02829). As to conditions: Prodromou et al. (1997); read-out: Kd of ATP for Hsp90; cited from earlier work.
The next test relates to Hsp90. The experiment in a line: [32P]ATP binding assay (nitrocellulose filtration). Further details: species or system rat. As to conditions: 50 μM [32P]ATP, 1 hour on ice. As to the method: Hsp90 was purified from rat liver cytosol as follows. Cytosol was adjusted to 30% ammonium sulfate and stirred for 60 min on ice. The solution was centrifuged at 20,000×g in a Sorvall SS34 rotor for 15 minutes and the supernatant collected and filtered through a 0.22 μm filter. The filtered supernatant was supplemented with protease inhibitors (1 μg/ml pepstatin, 1 μg/ml leupeptin, 20 μg/ml SBTI, and 0.5 mM PMSF) and loaded onto a phenyl-SUPEROSE™ HR10/10 column (Amersham Pharmacia Biotech of Piscataway, N.J.). After washing, the bound proteins were eluted with a gradient of 30–0% saturated ammonium sulfate in 10 mM Tris/HCl, pH 7.5, 1 mM EGTA, 0.5 mM DTT and the Hsp90 containing fractions were identified by SDS-PAGE. The Hsp90 containing fractions were then pooled and dialyzed 2×3 hr against 2 L of low salt buffer (10 mM NaCl, 25 mM Tris, pH 7.8). The dialyzed sample was then filtered through a 0.22 μm filter, and injected onto a MONO-Q™ HR 10/10 column (Amersham Pharmacia Biotech of Piscataway, N.J.) equilibrated in low salt buffer. The column was eluted with a gradient of 10 mM–750 mM NaCl in 25 mM Tris, pH 7.8. The Hsp90-containing fractions were identified by SDS-PAGE and pooled.
ATP Binding Assay. Six μg of GRP94, BiP, and Hsp90 was incubated with 50 μM yZ[^32P] […] Filters were washed with 3×2 mL of ice cold buffer B, placed in 5 mL of scintillation fluid, vortexed, and counted.

Test [9] addresses T1, GRP94. The experiment in a line: [32P]ATP binding assay (nitrocellulose filtration). The settings on record: 50 μM [32P]ATP, 1 hour on ice. Further details: GRP94 was purified from porcine pancreas rough microsomes; from tissue; host or cells: porcine pancreas rough microsomes; species or system porcine. Here is the method: as §3

T1 sequence (Q29092 22-804): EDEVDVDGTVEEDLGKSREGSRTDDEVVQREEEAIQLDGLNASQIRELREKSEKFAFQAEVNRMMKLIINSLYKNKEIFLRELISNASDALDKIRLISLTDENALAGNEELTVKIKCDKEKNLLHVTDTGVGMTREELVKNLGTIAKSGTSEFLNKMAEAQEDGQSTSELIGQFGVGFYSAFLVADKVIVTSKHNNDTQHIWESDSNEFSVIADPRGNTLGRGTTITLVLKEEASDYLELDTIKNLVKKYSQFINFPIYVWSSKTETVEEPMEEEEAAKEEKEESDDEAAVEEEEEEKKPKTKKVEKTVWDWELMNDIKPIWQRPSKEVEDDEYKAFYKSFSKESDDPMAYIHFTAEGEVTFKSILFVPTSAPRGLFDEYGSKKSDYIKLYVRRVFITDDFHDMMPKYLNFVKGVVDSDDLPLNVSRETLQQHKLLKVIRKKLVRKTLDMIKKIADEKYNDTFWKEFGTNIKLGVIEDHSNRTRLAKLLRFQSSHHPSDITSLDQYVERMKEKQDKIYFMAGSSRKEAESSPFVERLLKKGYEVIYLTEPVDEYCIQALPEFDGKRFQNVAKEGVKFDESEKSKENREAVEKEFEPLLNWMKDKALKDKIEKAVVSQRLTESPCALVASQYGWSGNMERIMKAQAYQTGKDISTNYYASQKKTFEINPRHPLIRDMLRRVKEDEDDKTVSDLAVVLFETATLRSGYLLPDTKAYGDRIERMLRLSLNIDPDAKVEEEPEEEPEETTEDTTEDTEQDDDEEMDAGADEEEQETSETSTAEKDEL
Chain of casein kinase II (P68400 whole entry): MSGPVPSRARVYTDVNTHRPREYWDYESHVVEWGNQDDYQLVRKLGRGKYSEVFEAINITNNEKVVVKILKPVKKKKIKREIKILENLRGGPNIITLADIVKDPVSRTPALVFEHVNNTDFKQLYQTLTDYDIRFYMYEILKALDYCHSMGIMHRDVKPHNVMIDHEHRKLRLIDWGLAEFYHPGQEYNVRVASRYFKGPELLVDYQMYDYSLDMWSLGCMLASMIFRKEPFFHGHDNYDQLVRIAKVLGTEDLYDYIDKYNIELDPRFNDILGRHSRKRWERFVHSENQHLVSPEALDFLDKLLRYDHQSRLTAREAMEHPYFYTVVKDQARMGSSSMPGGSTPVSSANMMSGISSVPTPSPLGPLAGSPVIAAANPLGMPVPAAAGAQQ
Chain of casein kinase II (P67870 whole entry partner): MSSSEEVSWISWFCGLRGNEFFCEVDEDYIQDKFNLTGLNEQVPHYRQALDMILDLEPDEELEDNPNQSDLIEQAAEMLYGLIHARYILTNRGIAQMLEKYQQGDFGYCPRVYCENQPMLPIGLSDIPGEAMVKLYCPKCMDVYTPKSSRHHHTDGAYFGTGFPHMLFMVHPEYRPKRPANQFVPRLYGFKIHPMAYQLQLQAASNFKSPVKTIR
Chain of N-terminal nucleotide binding pocket of Hsp90 (P02829 whole entry): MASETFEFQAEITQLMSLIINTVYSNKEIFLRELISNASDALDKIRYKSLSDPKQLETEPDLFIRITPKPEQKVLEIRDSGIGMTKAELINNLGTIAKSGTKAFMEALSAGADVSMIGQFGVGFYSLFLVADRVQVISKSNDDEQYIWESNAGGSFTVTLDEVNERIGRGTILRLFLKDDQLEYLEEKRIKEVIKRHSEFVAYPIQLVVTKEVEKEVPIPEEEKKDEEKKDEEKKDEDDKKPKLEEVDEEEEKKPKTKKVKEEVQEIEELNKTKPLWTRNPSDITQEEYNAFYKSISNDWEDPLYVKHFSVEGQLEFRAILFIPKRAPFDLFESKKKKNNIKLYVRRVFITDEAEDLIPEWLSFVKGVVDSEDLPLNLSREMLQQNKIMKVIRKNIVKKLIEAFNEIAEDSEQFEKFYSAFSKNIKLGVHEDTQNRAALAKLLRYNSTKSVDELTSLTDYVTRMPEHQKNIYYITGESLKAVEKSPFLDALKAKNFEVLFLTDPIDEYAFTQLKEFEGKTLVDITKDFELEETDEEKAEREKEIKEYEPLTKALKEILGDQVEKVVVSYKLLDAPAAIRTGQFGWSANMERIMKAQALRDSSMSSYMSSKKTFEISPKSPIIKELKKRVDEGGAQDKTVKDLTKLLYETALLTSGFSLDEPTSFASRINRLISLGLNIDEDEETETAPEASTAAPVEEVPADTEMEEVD

With `CCNC(=O)[C@H]1O[C@@H](n2cnc3c(N)ncnc32)[C@H](O)[C@@H]1O` [NECA, N-ethylcarboxamidoadenosine], the “binding stoichiometry of NECA by isothermal titration calorimetry” value at GRP94 [1] is 1.1 mol NECA/mol GRP94 dimer. On GRP94 [2], the “effect of excess Mg2+ on binding to GRP94” value is recorded as “without effect”. Besides, the “effect on GRP94 autophosphorylation activity” value at GRP94 [3] is listed as “does not significantly inhibit GRP94 autophosphorylation activity”. The “[3H]-NECA binding to BiP” value in the test on BiP [4] is reported as “not observed”. Moreover, the “[3H]-NECA binding activity of GRP94” value at GRP94 [5] (20 nM [3H]-NECA, 60 min on ice) is recorded as “readily detectable”. Besides, on GRP94 [5] (ligand binding studies and isothermal titration calorimetry), the “stoichiometry of NECA bound to GRP94 at saturation (summary)” value is listed as 1 mol NECA:mol GRP94 dimer. At GRP94 [5] (saturation binding), the “Hill plot slope of [3H]-NECA binding” value is listed as 1.2 and the “binding stoichiometry of [3H]-NECA” value was 0.5 mol [^3H]-NECA/mol GRP94 monomer. For the same molecule, on GRP94 [5] (saturation curve, FIG. 9B), the “maximal binding stoichiometry of NECA” value is given as 1 molecule of NECA per molecule of GRP94 dimer. The “effect on casein kinase II activity” value at casein kinase II is recorded as “neither NECA nor radicicol, both of which bind to the N-terminal nucleotide binding domain of GRP94, significantly inhibit GRP94 derived or casein kinase II activity”. Besides, on GRP94 [6], the “change of GRP94 tryptophan fluorescence” value is listed as “increased the tryptophan fluorescence”.

As to `Nc1ncnc2c1ncn2[C@@H]1O[C@H](COP(=O)(O)OP(=O)(O)OP(=O)(O)O)[C@@H](O)[C@H]1O` [ATP], the “molar excess of competitor required for 50% inhibition of [3H]-NECA binding” value at GRP94 [2] (20 nM [3H]-NECA) is ~1000 -fold molar excess. Further, at GRP94 [2] (20 nM [3H]-NECA, nominal (80 μM) Mg2+), the “competition with [3H]-NECA for binding to GRP94 (adenosine ligands)” value is “effectively competed”. In addition, the “effect of excess Mg2+ on binding to GRP94” value on GRP94 [2] is listed as “markedly stimulated”. Further, the “extent of competition of NECA binding to GRP94” value on GRP94 [2] (FIGS. 10A–10C) was “wholly competed”. Further, on GRP94 [2] (competitors all at 50 μM, 20 nM [3H]-NECA), the “nucleoside base specificity: binding by [3H]-NECA competitive displacement” value is reported as “could bind”. Further, on GRP94 [2] (excess Mg2+), the “relative affinities for GRP94 in presence of Mg2+” value is recorded as “nearly identical relative affinities”. Further, the “efficacy of competing NECA binding, ATP relative to ADP” value on GRP94 [2] (nominal Mg2+) was “eight-fold higher efficacy than ADP”. In addition, the “ATP binding to BiP” value in the test on BiP [7] is recorded as “displayed the expected ATP binding activity”. Further, the Kd in [8] was 132 µM. Moreover, the “ATP binding to Hsp90” value in the test on Hsp90 was “no ATP binding was observed”. Further, on GRP94 [9], the “ATP binding to GRP94” value is given as “no ATP binding was observed”. On GRP94 [6], the “change of GRP94 tryptophan fluorescence” value is “the tryptophan fluorescence was decreased”.
